Results as given in patent publication US20240181049A1, “HARNESSING THE POWER OF MICROBIOTA AND METABOLITES FOR THE TREATMENT OF CANCER” (UTI LIMITED PARTNERSHIP, priority 2019, published 2024).

Assays:
Format in all cases: cell-based, mice
[1] = test system: naïve OVA323-339-specific OT-II CD4^+ T cells; test: BMDC / naive OT-II CD4+ T cell co-culture, Th1 differentiation; conditions: with IFN-γ
Description: (§1) FIG. 4A-4K: Effect of inosine on T cell differentiation and dependency on classical dendritic cells of ICB therapy efficacy. (a) Scatter plot of untargeted metabolomics data in the serum of anti-CTLA-4 treated, tumor-bearing B.p. monocolonized compared to C.sp. monocolonized and germ-free (GF) mice. Grey circles or dotted grey circles depict inosine or inosine fragments/adducts, respectively. […] (c) Naïve CD4^+ T cells were co-cultured with bone marrow derived dendritic cells and IFN-γ. Quantification of T-bet^+CD3ε^+CD4^+ T cells 48 hours after co-culture in the presence or absence of inosine, A2A receptor inhibitor (ZM241385), cell permeable cAMP (db-cAMP) and protein kinase A inhibitor (RP-8-CPT-CAMPS). (d) Same as (c) without IFN-γ. (e) Representative plot and quantification (left and right panel) of phospho-CREB (Ser133) levels in naïve CD4^+ T cells cultured with anti-CD3/anti-CD28 coated beads for 1 hour in the presence or absence of inosine. (f) Schematic overview of experimental setup to deplete classical dendritic cells during MC38 tumor challenge and anti-CTLA-4 treatment. Intratumoral (g) frequency of CD8^+ T cells (h) IFN-γ^+CD8^+ T cells. (i and j) same as (g and h), but CD4^+ T cells and (k) tumor weight at […]. Data are mean±SEM and pooled from two individual experiments (a-b) n=5-8 samples/group (c-e) 10-15 biological replicates/group (f-k) 10 mice/group. *, P<0.05; **, P<0.01; ***, P<0.001; ****, P<0.0001
Bone marrow derived dendritic cells (BMDCs) were generated from flushed bone marrow cells, maintained in RPMI-1640 (Sigma) supplemented with 10% FBS, 50 μm 2-Mercaptoethanol (Sigma) 100 units/ml penicillin, 100 μg/ml streptomycin sulfate and 20 ng/ml rm GM-CSF (R&D). Medium was exchanged after 48 hours and 72 hours. 5 days after culture, a magnetic cell sorting step was performed to enrich for CD11c^+ cells (Miltenyi Biotec). CD11c^+ cells were seeded in 96 flat bottom wells and pulsed with 20 ng/ml OVA323-339 and 100 ng/ml LPS (both Sigma) for 18 hours. In some conditions BMDCs were also cultured with 10 ng/ml rmIFN-γ (R&D).
Negative selection magnetic cell sorting (Miltenyi Biotec) was used to enrich naïve OT-II CD4^+ T cells. Naïve OT-II CD4^+ T cells were then co-cultured with BMDCs at a ratio of 2:1 or stimulated with anti-CD3/anti-CD28 T cell activation beads (Thermofisher) at a ratio of 1:1 for 48 hours prior to restimulation with PMA/lonomycin in the presence of Brefeldin-A and analysis (see Single cell preparation and flow cytometry for details). In some conditions cells were additionally cultured with various combinations of 2 μg/ml anti-CTLA-4, 100 μM db-cAMP (Sigma), 5 μM ZM 241385 (Sigma), 300 μM Rp-8-CPT-CAMPS (Cayman Chemical) or 2 mM inosine (Sigma) as described previously (He et al., 2017; Yao et al., 2013).

[2] = test system: naïve CD4^+ T cells; test: Naive CD4+ T cells with anti-CD3/anti-CD28 coated beads; conditions: levels of adenosine in the serum
Description: as §1
FIG. 16A-16J: Context dependent effect of inosine on Th1 T cell differentiation. (a) Naïve CD4^+ T cells were co-cultured with bone marrow derived dendritic cells without IFN-γ. Quantification of T-bet^+CD3e^+CD4^+ T cells 48 hours after co-culture in the presence or absence of inosine and anti-CTLA-4, as indicated. (b) Naïve CD4^+ T cells were cultured anti-CD3/anti-CD28 coated beads at a ratio of 1:1 without IFN-γ for 48 hours. Representative plot and quantification of IL12Rβ2 surface expression on CD4^+ T cells in the presence or absence of inosine (left and right panel). (c) Quantification of T-bet^+CD3e^+CD4^+ T cells 48 hours after co-culture in the presence or absence of inosine, db-cAMP and anti-CTLA-4 as indicated. (d) Naïve, A2AR-deficient CD4^+ T cells were cultured with anti-CD3/anti-CD28 coated beads at a ratio of 1:1 without IFN-γ. Quantification of T-bet^+CD3e^+CD4^+ T cells 48 hours after co-culture in the presence or absence of inosine or db-cAMP (e) Representative plot and quantification (left and right panel) of pCREB expression of anti-CD3/anti-CD28 bead co-cultured CD4^+ T cells in the presence or absence of inosine or db-cAMP 1 hour after stimulation. Analysis through flow cytometry. (f and g) Naïve, wild type CD4^+ T cells were cultured with anti-CD3/anti-CD28 coated beads at a ratio of 1:1. Il12rb2 and Ifng gene transcripts (normalized to Gapdh) were evaluated 24 and 48 hours following inosine (1 mM) stimulation. Expression was normalized to cells treated with medium. Analysis through quantitative PCR assay (h) Naïve CD4^+ T cells were cultured with anti-CD3/anti-CD28 coated beads at a ratio of 1:1 without IFN-γ for 24 hours. Then inosine or vehicle was added at the indicated concentrations for another 48 hours before T cell differentiation and activation was assessed. (i) Adenosine concentrations in the duodenal-, jejunal- or cecal content of B.p. monocolonized mice and in the serum of B.p. or C.sp. monocolonized anti-CTLA-4 treated mice. (j) Naïve CD4^+ T cells were cultured with anti-CD3/anti-CD28 coated beads at a ratio of 1:1 without IFN-γ for 24 hours. Adenosine or was added then in the indicated concentrations for another 48 hours followed by T cell differentiation and activation was assessed through flow cytometry. […]

[3] = test system: A2AR-deficient CD4^+ T cells; test: A2AR-deficient naive CD4+ T cells with anti-CD3/anti-CD28 coated beads
Method: FIG. 16A-16J: Context dependent effect of inosine on Th1 T cell differentiation. (a) Naïve CD4^+ T cells were co-cultured with bone marrow derived dendritic cells without IFN-γ. Quantification of T-bet^+CD3e^+CD4^+ T cells 48 hours after co-culture in the presence or absence of inosine and anti-CTLA-4, as indicated. (b) Naïve CD4^+ T cells were cultured anti-CD3/anti-CD28 coated beads at a ratio of 1:1 without IFN-γ for 48 hours. Representative plot and quantification of IL12Rβ2 surface expression on CD4^+ T cells in the presence or absence of inosine (left and right panel). (c) Quantification of T-bet^+CD3e^+CD4^+ T cells 48 hours after co-culture in the presence or absence of inosine, db-cAMP and anti-CTLA-4 as indicated. […] Quantification of T-bet^+CD3e^+CD4^+ T cells 48 hours after co-culture in the presence or absence of inosine or db-cAMP (e) Representative plot and quantification (left and right panel) of pCREB expression of anti-CD3/anti-CD28 bead co-cultured CD4^+ T cells in the presence or absence of inosine or db-cAMP 1 hour after stimulation. […] Il12rb2 and Ifng gene transcripts (normalized to Gapdh) were evaluated 24 and 48 hours following inosine (1 mM) stimulation. […] Analysis through quantitative PCR assay (h) Naïve CD4^+ T cells were cultured with anti-CD3/anti-CD28 coated beads at a ratio of 1:1 without IFN-γ for 24 hours. […]

With Nc1nc(NCCc2ccc(O)cc2)nc2nc(-c3ccco3)nn12 [ZM241385, reference compound] the “effect of inosine on Th1 differentiation” value ([1]; inhibitor added (5 μM ZM 241385; 300 μM Rp-8-CPT-CAMPS)) was “completely abrogated the effect of inosine”.

With Nc1ncnc2c1ncn2[C@@H]1O[C@H](CO)[C@@H](O)[C@H]1O [adenosine, reference compound] the “Th1 activation and effector function, adenosine dose response” value [2] was “insufficient to promote Th1 activation and effector function”.

For CCCC(=O)Nc1ncnc2c1ncn2[C@@H]1O[C@@H]2COP(=O)(O)O[C@H]2[C@H]1OC(=O)CCC [db-CAMP, reference compound], the Th1 differentiation ([1]; 100 μM db-cAMP) was “restored Th1 differentiation and bypassed the need for inosine” and the “Th1 differentiation and phosphorylation of CREB” value [3] was “increased Th1 differentiation and phosphorylation of CREB in A2AR-deficient T cells”.
